Test results published in US20230365899A1, “COMPOSITIONS COMPRISING BLEACHING CATALYST, MANUFACTURING PROCESS THEREOF, AND BLEACHING AND CLEANING AGENT COMPRISING SAME” (WEYLCHEM PERFORMANCE PRODUCTS GMBH, priority 2020, published 2023).

Legend:
[1] = Reference granulation: stability of catalyst/PVOH mixture in water and on fluidised bed drying; assay type: physicochemical
Experimental: Similar to the process described above for granules 1-7, an aqueous solution of [Mn2(μ-O)3(Me3TACN)2](PF6)2·H2O in water and PVOH were mixed together with the other components to make the granule (corn starch and CaSO4). As the solubility of [Mn2(μ-O)3(Me3TACN)2](PF6)2·H2O in water is relatively low (1.08 wt-% in water at 20° C.—see WO2006/125517), a large amount of water needed to be added to obtain a mixture that has enough of the [Mn2(μ-O)3(Me3TACN)2](PF6)2·H2O catalyst to yield a granule comprising 2 wt-% of [Mn2(μ-O)3(Me3TACN)2](PF6)2·H2O (this would equate to 1.85 L of the aqueous solution of [Mn2(μ-O)3(Me3TACN)2](PF6)2·H2O following the same amounts of chemicals as described in the examples above).
Second observation was that the mixture of the [Mn2(μ-O)3(Me3TACN)2](PF6)2·H2O and PVOH in water was not stable.

[2] = BC-1 (tea stain on cotton) bleaching; conditions: pH 11.5, 1 g/L sodium percarbonate, 40° C., 30 min, Table 3
Experimental: BC-1 (tea stain on cotton) bleaching experiments were carried similarly as described in WO2014/202954. All bleaching experiments were done in duplication.
BC-1 (tea stain on cotton) bleaching was assessed at pH 11.5 in an aqueous solution containing 1 g/L nonionic formulation (Lutensol A07), 0, 1 and 2 μM [Mn2(μ-O)2(μ-CH3COO)(Me4DTNE)]Cl2), 1 g/L sodium percarbonate at 40° C. for 30 min (reference test).
Similarly, the bleaching activity of granule 9 was assessed using the same protocol, except for dissolving granule 9 in demineralised water yielding the same concentrations of catalyst as used in the reference test.

[3] = cited from earlier work

CN1CCN(C)CCN(C)CC1.CN1CCN(C)CCN(C)CC1.O=S(=O)([O-])[O-].[Mn+4].[Mn+4].[O-2].[O-2].[O-2] [MnTACNSO4, [Mn2(μ-O)3(Me3TACN)2]SO4]
time the mixture of catalyst and PVOH in solution remained stable ([1]; room temperature): at least 4 days

CC(=O)[O-].CN1CCN(C)CCN(CCN2CCN(C)CCN(C)CC2)CC1.[Cl-].[Cl-].[Mn+3].[Mn+4].[O-2].[O-2] [[Mn2(μ-O)2(μ-CH3COO)(Me4DTNE)]Cl2]
ΔR* BC-1 bleaching ([2]; 1.0 μM catalyst): 25.2 (0.1) | ΔR* BC-1 bleaching ([2]; 2.0 μM catalyst): 26.3 (0.1)

CN1CCN(C)CCN(C)CC1.CN1CCN(C)CCN(C)CC1.F[P-](F)(F)(F)(F)F.F[P-](F)(F)(F)(F)F.O.[Mn+4].[Mn+4].[O-2].[O-2].[O-2] [[Mn2(μ-O)3(Me3TACN)2](PF6)2·H2O, [Mn2(μ-O)3(Me3-TACN)2](PF6)2·H2O]
appearance after fluidised bed drying (catalyst decomposition) ([1]; granulation from dilute aqueous solution with PVOH, corn starch, CaSO4): dark brown granules | stability of mixture of catalyst and PVOH in water ([1]; room temperature): not stable | water solubility ([3]; at 20° C.): 10.8 mg/mL | solubility in water ([3]; in water at 20° C., see WO2006/125517): 1.08 wt-%
